Experimental data: PMC4266796 (International Journal for Parasitology: Drugs and Drug …, 2014)
Entries after “also recorded” stand apart in the source; their conditions may differ. Counter-ions that a name gives are not always drawn. Like-named read-outs stand apart in the source and are kept apart here.

Experiments:
[1] = system: O gutturosa Wolbachia; format: cell-based, Wolbachia of Onchocerca gutturosa; details: for Reduction in Wolbachia (wsp:gst log drop from vehicle controls): 5 days; for Effect on Wolbachia load (in words): 12.5 to 0.195 μM
[2] = system: Wolbachia of L. sigmodontis; assay: animal or person; format: in vivo, Wolbachia of Litomosoides sigmodontis in BALB/c mice; details: for log reduction at 25 mg/kg/day: ip, 240 h, read-out: wLs ftsz log drop in vivo
[3] = in vitro; details: Aedes albopictus
[4] = system: W. pipientis wAlbB in C6/36 (wAlbB) cells; assay: microbe, parasite or virus in culture; format: cell-based, Wolbachia pipientis; details: for log reduction at 10 µM: Wolbachia pipientis, C6/36, 216 h, read-out: 16S log drop, 10 μM, 9 days, single agent screening; for Dose response behaviour in titration series: 6 doses from 10 to 0.3 μM
[5] = system: L. sigmodontis; assay: In vivo L. sigmodontis screening assay, worm length; parameters: species or system Litomosoides sigmodontis in BALB/c mice
[6] = system: C6/36 (wAlbB) cells; details: 10 μM, luminescence vs vehicle-treated control
[7] = system: Wolbachia; details: ref Hermans et al., 2001; cited from earlier work
[8] = reduced regimen, 25 MKD for 10 days

For `C[C@H]1c2cccc(O)c2C(=O)C2=C(O)[C@]3(O)C(=O)C(C(N)=O)=C(O)[C@@H](N(C)C)[C@@H]3[C@@H](O)[C@@H]21` [Doxycycline], the “Reduction in Wolbachia (wsp:gst log drop from vehicle controls)” value ([1]; 0.195 μM) was 0.77 log, the “Reduction in Wolbachia (wsp:gst log drop from vehicle controls)” value ([1]; 0.781 μM) was 0.14 log and the “Reduction in Wolbachia (wsp:gst log drop from vehicle controls)” value ([1]; 3.125 μM) was 0.21 log. For the same molecule, the “Reduction in Wolbachia (wsp:gst log drop from vehicle controls)” value ([1]; 12.5 μM) was 0.80 log, the “Effect on Wolbachia load (in words)” value [1] was “reduced the Wolbachia load” and the log reduction at 25 mg/kg/day [2] was 2.2. For the same molecule, the cytotoxicity at 7 µM [3] was 0% and the “16S log drop in vitro” value ([4]; doxycycline gold standard, 7 μM, 9 days) was 1.6 log.

For `CN(C)c1ccc(O)c2c1C[C@H]1C[C@H]3[C@H](N(C)C)C(O)=C(C(N)=O)C(=O)[C@@]3(O)C(O)=C1C2=O` [Minocycline], the log reduction at 25 mg/kg/day [2] was 3.78, the “Reduction in Wolbachia load compared with the same dose/regimen of doxycycline” value ([2]; methacycline 50 MKD, minocycline 25 MKD for 10 days, P < 0.05) was “significantly greater” and the “Activity in the L. sigmodontis mouse model (in words)” value (shortened to “Activity … (in words)”) ([2]; mouse, in vivo) was “demonstrated activity”. The “Effect on Wolbachia load (in words)” value [2, 8] was “significantly reduced”, the “Effect on Wolbachia load (in words)” value ([2]; standard doses tested) was “significantly reduced” and the “Effect on worm length (in words)” value ([5]; standard doses tested) was “significantly reduced”. The cytotoxicity at 10 µM [3] was 0% and the log reduction at 10 µM [4] was ≥ 1.6.

For `COc1ccc2c(c1)c(CC(=O)O)c(C)n2C(=O)c1ccc(Cl)cc1` [Indomethacin], the cytotoxicity at 10 µM [3] was 0% and the log reduction at 10 µM [4] was ≥ 1.6.

In the case of `COc1c(N2C[C@@H]3CCCN[C@@H]3C2)c(F)cc2c(=O)c(C(=O)O)cn(C3CC3)c12` [Moxifloxacin], the “Effect on Wolbachia load (in words)” value [1] is reported as “greatly reduced the Wolbachia load at all concentrations tested” and the “Activity … (in words)” value ([2]; levofloxacin and moxifloxacin: data not shown / unpublished observations) is reported as “active”.

In the case of `CO[C@H]1/C=C/O[C@@]2(C)Oc3c(C)c(O)c4c(O)c(c(/C=N/N5CCN(C6CCCC6)CC5)c(O)c4c3C2=O)NC(=O)/C(C)=C\C=C\[C@H](C)[C@H](O)[C@@H](C)[C@@H](O)[C@@H](C)[C@H](OC(C)=O)[C@@H]1C` [Rifapentine], the “Reduction in Wolbachia (wsp:gst log drop from vehicle controls)” value ([1]; 0.195 μM) is reported as 0.99 log, the “Reduction in Wolbachia (wsp:gst log drop from vehicle controls)” value ([1]; 0.781 μM) is reported as 0.78 log and the “Reduction in Wolbachia (wsp:gst log drop from vehicle controls)” value ([1]; 3.125 μM) is reported as 0.77 log. The “Reduction in Wolbachia (wsp:gst log drop from vehicle controls)” value ([1]; 12.5 μM) was 1.04 log, the “Effect on Wolbachia load (in words)” value [1] was “greatly reduced the Wolbachia load at all concentrations tested” and the “Activity … (in words)” value ([2]; mouse, in vivo) was “demonstrated activity”. For the same molecule, the “Effect on Wolbachia load (in words)” value ([2]; standard doses tested) was “significantly reduced”, the “Effect on worm length (in words)” value ([5]; standard doses tested) was “significantly reduced” and the cytotoxicity at 10 µM [3] was 20%. The log reduction at 10 µM [4] was ≥ 1.6.

With `CCOC(=O)N1CCC(=C2c3ccc(Cl)cc3CCc3cccnc32)CC1` [Loratadine] the “Effect on worm length (in words)” value ([5]; standard doses tested) was “no effect” and the cytotoxicity at 10 µM [3] was 20.7%.

For `CCCCC(CC)COC(=O)CC(C(=O)OCC(CC)CCCC)S(=O)(=O)[O-].CCCCC(CC)COC(=O)CC(C(=O)OCC(CC)CCCC)S(=O)(=O)[O-].[Ca+2]` (centres unmarked) [Docusate Calcium], the “Cytotoxicity (%)” value [6] was 0%, the “wLs ftsz log drop in vivo” value ([2]; 200 MKD IP for 14 days) was 1.0 log and the “Ls length reduction in vivo (%)” value ([5]; 200 MKD IP for 14 days) was 20.0%.

With `C=C1c2cccc(O)c2C(=O)C2=C(O)[C@]3(O)C(=O)C(C(N)=O)=C(O)[C@@H](N(C)C)[C@@H]3[C@@H](O)[C@H]12` [Methacycline hydrochloride] the cytotoxicity at 10 µM [3] was 0%, the “Dose response behaviour in titration series” value (“Dose response behaviour” for short) [4] was “active at all tested concentrations to the same extent” and the log reduction at 10 µM [4] was ≥ 1.6.

`CC1(C)NC(=O)N(c2ccc([N+](=O)[O-])c(C(F)(F)F)c2)C1=O` [Nilutamide] showed a cytotoxicity at 10 µM [3] of 0.01%.

`NNC(=O)c1ccncc1` [Isoniazid] gave a cytotoxicity at 10 µM [3] of 0.3%.

With `NC[C@@H]1O[C@H](O[C@H]2[C@@H](O)[C@H](O[C@@H]3[C@@H](O)[C@H](N)C[C@H](N)[C@H]3O[C@H]3O[C@H](CO)[C@@H](O)[C@H](O)[C@H]3N)O[C@@H]2CO)[C@H](N)[C@@H](O)[C@@H]1O` [Paromomycin sulfate] the cytotoxicity at 10 µM [3] was 0%, the “Dose response behaviour” value [4] was “showed a dose response” and the log reduction at 10 µM [4] was ≥ 1.6.

In the case of `CO[C@@H]1[C@@H](O[C@@H]2O[C@H](C)[C@@H](O[C@H]3C[C@@](C)(O)[C@@H](OC(=O)CC(C)C)[C@H](C)O3)[C@H](N(C)C)[C@H]2O)[C@@H](CC=O)C[C@@H](C)[C@@H](O)/C=C/C=C/C[C@@H](C)OC(=O)C[C@H]1O` [Kitasamycin], the log reduction at 10 µM [4] is reported as ≥ 1.6.

With `Nc1nc(NC2CC2)c2ncn([C@H]3C=C[C@@H](CO)C3)c2n1` [Abacavir Sulfate] the cytotoxicity at 10 µM [3] was 0%.

With `C[C@@H]1CN(c2c(F)c(N)c3c(=O)c(C(=O)O)cn(C4CC4)c3c2F)C[C@H](C)N1` [Sparfloxacin] the log reduction at 25 mg/kg/day [2] was 0.6, the “Activity … (in words)” value ([2]; mouse, in vivo) was “demonstrated activity; also recorded: active” and the “Effect on Wolbachia load (in words)” value [2, 8] was “did not significantly affect”. The “Effect on Wolbachia load (in words)” value ([2]; standard doses tested) was “significantly reduced”, the “Effect on worm length (in words)” value [5, 8] was “did not significantly affect” and the “Effect on worm length (in words)” value ([5]; standard doses tested) was “significantly reduced”. For the same molecule, the cytotoxicity at 10 µM [3] was 0%.

In the case of `C[C@H]1COc2c(N3CCN(C)CC3)c(F)cc3c(=O)c(C(=O)O)cn1c23` [levofloxacin], the “Activity … (in words)” value ([2]; mouse, in vivo) is reported as “inactive”.

For `CCOc1ccc2nc(S(N)(=O)=O)sc2c1` [Ethoxzolamide], the cytotoxicity at 10 µM [3] was 19%.

In the case of `O=C(O)c1cn(C2CC2)c2cc(N3CCNCC3)c(F)cc2c1=O` [Ciprofloxacin hydrochloride], the “Effect on worm length (in words)” value ([5]; standard doses tested) is given as “did not reduce”, the cytotoxicity at 10 µM [3] is given as 0% and the “Activity in other cell-based Wolbachia assays” value [7] is given as “no activity”.

In the case of `CCC1(C)CC(=O)NC1=O` (centres unmarked) [Ethosuximide], the log reduction at 10 µM [4] is reported as ≥ 1.6.

With `[H]/N=C(/N)NS(=O)(=O)c1ccc(N)cc1` [Sulfaguanidine] the “Dose response behaviour” value [4] was “active at all tested concentrations to the same extent”.

Molecule `CC(=O)Oc1cccc2c1C(=O)c1c(OC(C)=O)cc(C(=O)O)cc1C2=O` [Diacerein] has a cytotoxicity at 10 µM [3] of 0%.

With `COc1cc(/C=C/C(=O)CC(=O)/C=C/c2ccc(O)c(OC)c2)ccc1O` [Curcumin] the cytotoxicity at 10 µM [3] was 0% and the “Dose response behaviour” value [4] was “activity only at the highest concentration”.
